# Patent publication US11427567B2, “Imidazolyl pyrimidinylamine compounds as CDK2 inhibitors” (Incyte Corporation, priority 2019, dated 2022)
# Target: CDK2/Cyclin E1 (Homo sapiens (Human), UniProt P24941)
# Assay: CDK2/Cyclin E1 HTRF enzyme activity assay (Example A)
# Assay type: biochemical
# Details: 1 mM ATP
# Method: Assays were conducted in white 384-well polystyrene plates in a final reaction volume of 8 μL. […] HTRF signals were read after 1 hour at room temperature on a PHERAstar FS plate reader (BMG Labtech). Data was analyzed with IDBS XLFit and GraphPad Prism 5.0 software using a three or four parameter dose response curve to determine IC50 for each compound.
row,Compound,IC50 [µM]
1,"Cn1nncc1-c1ccc(-n2cnc(-c3nc(NC4CCN(S(C)(=O)=O)CC4)ncc3C(F)(F)F)c2)c(Cl)c1 [Example 122, 4-(1-(2-Chloro-4-(1-methyl-1H-1,2,3-triazol-5-yl)phenyl)-1H-imidazol-4-yl)-N-(1-(methyl-sulfonyl)piperidin-4-yl)-5-(trifluoro-methyl)pyrimidin-2-amine]",≤ 0.05
2,"Cc1cc(C#N)ncc1-n1cnc(-c2nc(NC3CCN(S(C)(=O)=O)CC3)ncc2C(F)(F)F)c1 [Example 168, 4-Methyl-5-(4-(2-((1-(methylsulfonyl)piperidin-4-yl)amino)-5-(trifluoromethyl)pyrimidin-4-yl)-1H-imidazol-1-yl)picolinonitrile]",≤ 0.05
3,"Cc1nc(-c2nc(N[C@H]3CCN(S(C)(=O)=O)C[C@H]3F)ncc2C(F)(F)F)cn1-c1ccc(CN(C)C)cc1F [Example 286, 4-(1-(4-((Dimethylamino)methyl)-2-fluorophenyl)-2-methyl-1H-imidazol-4-yl)-N-((3R,4S)-3-fluoro-1-(methylsulfonyl)piperidin-4-yl)-5-(trifluoromethyl)pyrimidin-2-amine]",≤ 0.05
4,"Cn1cnc(S(=O)(=O)N2CCC(Nc3ncc(C(F)(F)F)c(-c4cn(-c5cc(N)ncc5F)cn4)n3)CC2)c1 [Example 6, 4-(1-(2-Amino-5-fluoropyridin-4-yl)-1H-imidazol-4-yl)-N-(1-((1-methyl-1H-imidazol-4-yl)sulfonyl)piperidin-4-yl)-5-(trifluoromethyl)pyrimidin-2-amine]",≤ 0.05
5,"C[C@@H]1CN(S(=O)(=O)C2CC2)CC[C@@H]1Nc1ncc(C(F)(F)F)c(-c2cn(-c3ccc(CNC4CC4)cc3Cl)cn2)n1 [Example 221, 4-(1-(2-Chloro-4-((cyclopropylamino)-methyl)phenyl)-1H-imidazol-4-yl)-N-((3R,4S)-1-(cyclo-propylsulfonyl)-3-methylpiperidin-4-yl)-5-(trifluoro-methyl)pyrimidin-2-amine]",≤ 0.05
6,"CNC(C)c1ccc(-n2cnc(-c3nc(NC4CCN(S(C)(=O)=O)CC4)ncc3C(F)(F)F)c2)c(Cl)c1 (single isomer, unassigned) [Example 276, 4-(1-(2-Chloro-4-(1-(methylamino)ethyl)phenyl)-1H-imidazol-4-yl)-N-(1-(methylsulfonyl)piperidin-4-yl)-5-(trifluoromethyl)pyrimidin-2-amine]",≤ 0.05
7,"CC(C)(O)Cn1cnc(-c2nc(NC3CCN(S(C)(=O)=O)CC3)ncc2C#N)c1 [Example 27, 4-(1-(2-Hydroxy-2-methylpropyl)-1H-imidazol-4-yl)-2-((1-(methylsulfonyl)piperidin-4-yl)amino)pyrimidine-5-carbonitrile]",≤ 0.05
8,"CNCc1ccc(-n2cnc(-c3nc(NC4CCN(S(C)(=O)=O)CC4)ncc3C(F)(F)F)c2)c(C(F)F)n1 [Example 245, 4-(1-(2-(Difluoromethyl)-6-((methylamino)methyl)pyridin-3-yl)-1H-imidazol-4-yl)-N-(1-(methylsulfonyl)piperidin-4-yl)-5-(trifluoromethyl)pyrimidin-2-amine]",≤ 0.05
9,"Cn1cnc(S(=O)(=O)N2CCC(Nc3ncc(C(F)(F)F)c(-c4cn(-c5ccc(C#N)cc5Cl)cn4)n3)CC2)c1 [Example 4, 3-Chloro-4-(4-(2-((1-((1-methyl-1H-imidazol-4-yl)sulfonyl)piperidin-4-yl)amino)-5-(trifluoromethyl)pyrimidin-4-yl)-1H-imidazol-1-yl)benzonitrile]",≤ 0.05
10,"CCS(=O)(=O)N1CCC(Nc2ncc(C(F)(F)F)c(-c3cn(-c4ccc(C#N)nc4C)cn3)n2)CC1 [Example 93, 5-(4-(2-((1-(Ethylsulfonyl)piperidin-4-yl)amino)-5-(trifluoromethyl)pyrimidin-4-yl)-1H-imidazol-1-yl)-6-methylpicolinonitrile]",≤ 0.05
11,"CS(=O)(=O)N1CCC(Nc2ncc(C(F)(F)F)c(-c3cn(-c4cccc(CNC5CC5)c4Cl)cn3)n2)CC1 [Example 81, 4-(1-(2-Chloro-3-((cyclopropylamino)methyl)phenyl)-1H-imidazol-4-yl)-N-(1-(methylsulfonyl)piperidin-4-yl)-5-(trifluoromethyl)pyrimidin-2-amine]",≤ 0.05
12,"CCS(=O)(=O)N1CCC(Nc2ncc(C(F)(F)F)c(-c3cn(-c4ccc(C)nc4C#N)cn3)n2)CC1 [Example 87, 3-(4-(2-((1-(Ethylsulfonyl)piperidin-4-yl)amino)-5-(trifluoromethyl)pyrimidin-4-yl)-1H-imidazol-1-yl)-6-methylpicolinonitrile]",≤ 0.05
13,"CO[C@@H]1CCN(Cc2ccc(-n3cnc(-c4nc(NC5CCN(S(C)(=O)=O)CC5)ncc4C(F)(F)F)c3)c(Cl)c2)C1 [Example 207, (R)-4-(1-(2-Chloro-4-((3-methoxypyrrolidin-1-yl)methyl)phenyl)-1H-imidazol-4-yl)-N-(1-(methylsulfonyl)-piperidin-4-yl)-5-(trifluoromethyl)-pyrimidin-2-amine]",≤ 0.05
14,"Cn1cnc(S(=O)(=O)N2CCC(Nc3ncc(C(F)(F)F)c(-c4cn(-c5c(Cl)cccc5C#N)cn4)n3)CC2)c1 [Example 5, 3-Chloro-2-(4-(2-((1-((1-methyl-1H-imidazol-4-yl)sulfonyl)piperidin-4-yl)amino)-5-(trifluoromethyl)pyrimidin-4-yl)-1H-imidazol-1-yl)benzonitrile]",≤ 0.05
15,"CC(=O)Nc1nccc(-n2cnc(-c3nc(NC4CCN(S(=O)(=O)c5cn(C)cn5)CC4)ncc3C(F)(F)F)c2)c1C [Example 8, N-(3-Methyl-4-(4-(2-((1-((1-methyl-1H-imidazol-4-yl)sulfonyl)piperidin-4-yl)amino)-5-(trifluoromethyl)pyrimidin-4-yl)-1H-imidazol-1-yl)pyridin-2-yl)acetamide]",≤ 0.05
16,"COc1ccc(-n2cnc(-c3nc(NC4CCN(S(C)(=O)=O)CC4)ncc3C(F)(F)F)c2)c(Cl)c1 [Example 151, 4-(1-(2-Chloro-4-methoxyphenyl)-1H-imidazol-4-yl)-N-(1-(methylsulfonyl)piperidin-4-yl)-5-(trifluoromethyl)pyrimidin-2-amine]",≤ 0.05
17,"CCN(C)CCOc1ccc(-n2cnc(-c3nc(NC4CCN(S(C)(=O)=O)CC4)ncc3C(F)(F)F)c2)c(C#N)n1 [Example 76, 6-(2-(Ethyl(methyl)amino)ethoxy)-3-(4-(2-((1-(methylsulfonyl)piperidin-4-yl)amino)-5-(trifluoromethyl)pyrimidin-4-yl)-1H-imidazol-1-yl)picolinonitrile]",≤ 0.05

# The next lines start with the values.
row,IC50 [µM],Compound
1,≤ 0.05,"CC1(O)CN(Cc2cccc(-n3cnc(-c4nc(NC5CCN(S(C)(=O)=O)CC5)ncc4C(F)(F)F)c3)c2C(F)(F)F)C1 [Example 379, 3-Methyl-1-(3-(4-(2-((1-(methylsulfonyl)piperidin-4-yl)amino)-5-(trifluoromethyl)pyrimi-din-4-yl)-1H-imidazol-1-yl)-2-(trifluoromethyl)benzyl) azetidin-3-ol]"
2,≤ 0.05,"CCOc1ccc(-n2cnc(-c3nc(NC4CCN(S(C)(=O)=O)CC4)ncc3C(F)(F)F)c2)c(C#N)c1 [Example 436, 5-Ethoxy-2-(4-(2-((1-(methylsulfonyl)piperidin-4-yl)amino)-5-(trifluoromethyl)pyrimidin-4-yl)-1H-imidazol-1-yl)benzonitrile]"
3,≤ 0.05,"CC(C)NCc1cc(F)c(-n2cnc(-c3nc(NC4CCN(S(C)(=O)=O)CC4)ncc3C(F)(F)F)c2)c(Cl)c1 [Example 394, 4-(1-(2-Chloro-6-fluoro-4-((isopropylamino)methyl)phenyl)-1H-imidazol-4-yl)-N-(1-(methylsulfonyl)piperidin-4-yl)-5-(trifluoromethyl)pyrimidin-2-amine]"
4,≤ 0.05,"Cc1nc(-c2nc(N[C@H]3CCN(S(C)(=O)=O)C[C@H]3F)ncc2C(F)(F)F)cn1-c1ccc(CN2CCCC2)cc1F [Example 407, N-((3R,4S)-3-Fluoro-1-(methylsulfonyl)piperidin-4-yl)-4-(1-(2-fluoro-4-(pyrrolidin-1-ylmethyl)phenyl)-2-methyl-1H-imidazol-4-yl)-5-(trifluoromethyl)pyrimidin-2-amine]"
5,≤ 0.05,"Cc1nc(-c2nc(NC3CCN(S(C)(=O)=O)CC3)ncc2C(F)(F)F)cn1-c1ccc(OCCN2CCCC2)cc1F [Example 424, 4-(1-(2-Fluoro-4-(2-(pyrrolidin-1-yl)ethoxy)phenyl)-2-methyl-1H-imidazol-4-yl)-N-(1-(mehtylsulfonyl)piperidin-4-yl)-5-(trifluoromethyl)pyrimidin-2-amine]"
6,≤ 0.05,"CN1CCN(c2nccc(-n3cnc(-c4nc(NC5CCN(S(C)(=O)=O)CC5)ncc4C(F)(F)F)c3)c2Cl)CC1 [Example 319, 4-(1-(3-Chloro-2-(4-methylpiperazin-1-yl)pyridin-4-yl)-1H-imidazol-4-yl)-N-(1-(methylsulfonyl)piperidin-4-yl)-5-(trifluoromethyl)pyrimidin-2-amine]"
7,≤ 0.05,"COc1nccc(-n2cnc(-c3nc(N[C@H]4CCN(S(C)(=O)=O)C[C@H]4F)ncc3C(F)(F)F)c2)c1C#N [Example 297, 4-(4-(2-(((3R,4S)-3-Fluoro-1-(methylsulfonyl)piperidin-4-yl)amino)-5-(trifluoromethyl)pyrimidin-4-yl)-1H-imidazol-1-yl)-2-methoxynicotinonitrile]"
8,≤ 0.05,"CN1CCN(Cc2cc(F)c(-n3cnc(-c4nc(NC5CCN(S(C)(=O)=O)CC5)ncc4C(F)(F)F)c3)c(F)c2)CC1 [Example 352, 4-(1-(2,6-Difluoro-4-((4-methylpiperazin-1-yl)methyl)phenyl)-1H-imidazol-4-yl)-N-(1-(methylsulfonyl)piperidin-4-yl)-5-(trifluoromethyl)pyrimidin-2-amine]"
9,≤ 0.05,"C[C@]1(O)CCN(Cc2ccc(-n3cnc(-c4nc(N[C@H]5CCN(S(C)(=O)=O)C[C@H]5F)ncc4C(F)(F)F)c3)c(Cl)c2)C1 [Example 412, (S)-1-(3-Chloro-4-(4-(2-(((3R,4S)-3-fluoro-1-(methylsulfonyl)piperidin-4-yl)amino)-5-(trifluoromethyl)pyrimidin-4-yl)-1H-imidazol-1-yl)benzyl)-3-methylpyrrolidin-3-ol]"
